From patent publication US8143373B2, “Carbohydrate-containing pan cancer marker” (Vancouver Biotech Ltd., priority 2007, dated 2012)
Several values for one entry are separate records, joined by “and”; a condition that tells them apart may be missing. Equal values may be shown once. One block for each compound: values may come before it.

How the values were obtained:
[1] = system: CA215; assay: Sandwich EIA with coated RP215 forms, OC-3-VGH shed medium and HRP-labeled RP215; assay type: binding, human; settings: for Relative Signal Intensity in Sandwich EIA: antibody coated at 5 μg/ml, 450 nm
Protocol: Each was coated separately at 5 μg/ml overnight in microwells. The microwells were treated with concentrated cell culture shed medium of OC-3-VGH cells (to supply CA215) and then with HRP-labeled RP215 as a detection antibody. The detection antibody was incubated with each well for 60 min. at 37° C. After 30 min, TMB substrate was added for 20 min. of color development and, after stopping the reaction, the intensity determined at 450 nm in an ELISA reader. In some cases, 10 μg/ml human IgG was added to the wells, but this had no evident effect on the signal intensity.

[2] = system: Goat Anti-mouse IgG; assay: Binding of well-coated antibodies to detecting antibody; settings: for Relative Intensity: detecting antibody Goat Anti-mouse IgG, RP215 adjusted to 100%
Text: In row 1, the results were normalized to 100% for the interaction between RP215 and goat anti-mouse IgG. As shown in the first row, goat anti-mouse IgG bound comparatively poorly to the humanized or chimeric human forms.

[3] = system: Goat Anti-human IgG; assay: as above; settings: for Relative Intensity: detecting antibody Goat Anti-human IgG, hRP215 adjusted to 100%
Text: In row 2, when goat anti-human IgG is used as a detector, and humanized RP215 was set at 100%, decreased binding was shown for human IgG, and very reduced binding for the chimeric or murine RP215.

[4] = system: Goat Anti-human IgFc; assay: as above
[5] = system: Goat Anti-human IgFab; assay: as above
[6] = system: CA215 present in OC-3-VGH cancer cells; assay: Secondary two-step ELISA, direct binding of anti-immunoglobulin antibodies to CA215 in OC-3-VGH cancer cells; parameters: species or system human; settings: 1.125 ug/ml primary antibody; ODn = corresponding normal mouse IgG concentration
Protocol: In this case the experiment was conducted as a secondary two-step ELISA with primary antibodies incubated with sample overnight at room temperature, followed by goat antibody Anti-Mouse IgG-ALP, for 1 hour at 37° C. ODs is the OD value of sample and ODn is the OD value of corresponding normal mouse IgG concentration.

[7] = system: OC-3-VGH ovarian cancer cells; assay: Growth of OC-3-VGH cell cultures in vitro; assay type: cell-based, human; settings: addition to cell cultures of OC-3-VGH ovarian cancer cells
Protocol: Cell culture growth was also not inhibited either by human IgG or goat anti-human IgG in vitro up to a concentration of 200 μg/ml in the cell culture.

[8] = system: OC-3-VGH ovarian cancer cells tumors; assay: Tumor growth in nude mice implanted subcutaneously with cancer cells; assay type: in vivo; settings: for Body Weight (individual mouse) / Tumor Weight (individual mouse): mice #1-4; for Percent (average tumor weight, negative control = 100) / Average of Tumor Weight: n=4
Protocol: Groups of four nude mice were implanted subcutaneously with 2×10^6 cells in 0.2 ml per mouse at sites near the breast for a growth period of 2-3 weeks. Treatments were performed after visible apparent growth of tumors. The radioactive labeling of the mAb was at a specific radioactivity of 12.5 μCi/mg.
The mice were sacrificed on day 16 after treating with antibody, and the size of tumors in each mouse was determined by weight together with the body weight.

[9] = system: CA215 antigen on OC-3-VGH cancer cells; assay: Direct binding enzyme immunoassay of RP215-HRP to OC-3-VGH cancer cell-coated wells (NaIO4 treatment, goat anti-human IgG competition); settings: for Optical Density at 450 nm / percent maximum binding: RP215-HRP 10 ug/ml + normal mouse IgG 10 ug/ml
Protocol: PBS-washed OC-3-VGH cancer cells (conc. 1×10^6 cells/ml) were incubated with 100 mM NaIO4 for 30 minutes, the cells were washed with PBS containing 0.5% BSA, and then dried on microwells at 1×10^4 cells/well. The cell-coated microwells were then blocked with 0.5% BSA in PBS and direct binding enzyme immunoassays using RP215 labeled with horseradish peroxidase (RP215-HRP) were performed at 37° C. for one hour followed by extensive washes and color development with TMB substrate. For comparison wells coated with cancer cells without NaIO4 treatments served as control.

[10] = high dose 10 mg/Kg (I131-labeled: + 125 μCi), day 16, 10 mg/kg, in g (unit assumed)
[11] = low dose 2 mg/Kg (I131-labeled: + 25 μCi), day 16, 2 mg/kg, in g (unit assumed)
[12] = 60 mg/Kg, sacrificed day 16 after treating

- binding affinity to CA215 compared with RP215 (in words) ([1]; sandwich EIA): lower binding affinity
- Relative Intensity [2]: ~7%
- Relative Intensity [3]: ~10%
- Relative Intensity [4]: 45%
- Relative Intensity [5]: 10%
Compound: chRP215: chimeric RP215 mAb with human constant regions and the murine variable regions of RP215
- Relative Signal Intensity in Sandwich EIA ([1]; 10 μg/ml Human IgG): 15.4%
- Relative Signal Intensity in Sandwich EIA ([1]; No Human IgG): 14.5%

- binding to goat anti-mouse IgG (in words) ([2]; antibody-coated microwells): strong binding
- Relative Intensity [2]: 100%
- binding to goat anti-human IgG (in words) ([3]; antibody-coated microwells, alkaline phosphatase-labeled goat anti-human IgG): no binding
- Relative Intensity [3]: <0.5%
- Relative Intensity [4]: <0.5%
- Relative Intensity [5]: <1%
Compound: RP215: monoclonal antibody (mouse IgG) to tumor-associated antigen CA215; hybridoma deposited as ATCC HB10095
- ODs405/ODn405 [6]: 11.6
- effect on growth of cell cultures (in words) [7]: no effect on growth
- Body Weight (individual mouse) [8, 10]: 21.43 and 23.05 and 22.15 and 23.56
- Tumor Weight (individual mouse) [8, 10]: 0.088 and 0.077 and 0.095 and 0.086
- Percent (average tumor weight, negative control = 100) ([8]; high dose 10 mg/Kg (I131-labeled: + 125 μCi), day 16): 66.2%
- Average of Tumor Weight ([8]; high dose 10 mg/Kg (I131-labeled: + 125 μCi), day 16, in g (unit assumed)): 0.0865
- Body Weight (individual mouse) [8, 11]: 21.76 and 20.57 and 21.98 and 22.64
- Tumor Weight (individual mouse) [8, 11]: 0.103 and 0.122 and 0.080 and 0.104
- Percent (average tumor weight, negative control = 100) ([8]; low dose 2 mg/Kg (I131-labeled: + 25 μCi), day 16): 78.2%
- Average of Tumor Weight ([8]; low dose 2 mg/Kg (I131-labeled: + 25 μCi), day 16, in g (unit assumed)): 0.1022
- tumor growth in vivo (in words) ([8]; nude mice): successful in inhibiting tumor growth in vivo
- Relative Signal Intensity in Sandwich EIA ([1]; 10 μg/ml Human IgG): 100%
- Relative Signal Intensity in Sandwich EIA ([1]; No Human IgG): 100%

Compound: O=P1(N(CCCl)CCCl)NCCCO1 (centres unmarked) [Cyclophosphonamide, reference compound]
- Percent (average tumor weight, negative control = 100) ([8]; 60 mg/Kg, day 16): 73.2%
- Average of Tumor Weight ([8]; 60 mg/Kg, day 16, in g (unit assumed)): 0.09575
- Body Weight (individual mouse) [8, 12]: 21.18 (2×) and 21.42 and 23.37
- Tumor Weight (individual mouse) [8, 12]: 0.098 (2×) and 0.096 and 0.091

Compound: RP215-HRP: RP215 labeled with horseradish peroxidase
- binding between RP215-HRP and cancer cell-coated wells treated with periodate (in words) ([9]; 100 mM NaIO4 for 30 minutes vs untreated cells): drastically reduced
- Optical Density at 450 nm ([9]; with NaIO4 treatment): 0.797
- percent maximum binding ([9]; with NaIO4 treatment): 37%
- Optical Density at 450 nm ([9]; without NaIO4 treatment): 2.153
- percent maximum binding ([9]; without NaIO4 treatment): 100%
